Measurements published in patent publication US8492348B2, “Methods of increasing cerebral blood flow” (The Board of Trustees of the Leland Stanford Junior …, priority 2005, dated 2013).

Columns and labels:
[1] = test system: rats subjected to ischemic/reperfusion injury by middle cerebral artery (MCA) occlusion; test: Transmission electron microscopy of brain tissue, ischemic penumbra, after MCA occlusion (Example 3); assay type: in vivo, Sprague-Dawley rats; details: for number of vessels per field (patent microvessels): 120 min MCA occlusion, 4 hrs reperfusion, 0.2 mg/kg bolus intraperitoneal at onset of reperfusion, 1200x fields, n=4, FIG. 5
Description: Sprague-Dawley rats underwent 120 minutes MCA occlusion, followed by 4 hrs of reperfusion. Rats were treated with either TAT or δV1-1-TAT peptides at the onset of reperfusion by bolus intraperitoneal injection (0.2 mg/kg in 1 mL, n=4 per group). […] Following the reperfusion period, rats were heavily anesthetized using isoflurane, and underwent transcardial perfusion using 0.7% NaCl/PBS followed by 4% formaldehyde in 0.7% NaCl/PBS.
Brains were removed and kept at 4° C. overnight in 2% formaldehyde/2% glutaraldehyde in 0.1M sodium cacodylate buffer, pH 7.3, Brain sections (˜1 mm^3) were then dissected from the cortical surface, at ˜1 mm anterior/˜6 mm lateral to bregma on the ipsilateral cortex (corresponding to the area measured by laser Doppler flowmetry). Tissue was post-fixed in 1% osmium tetroxide for 1 hr, washed with water, and stained in 1% uranyl acetate solution. Tissue was dehydrated using an ethanol gradient followed by 100% propylene oxide, and infiltrated with Epon and Embed 812 medium, placed in molds, and polymerized overnight at 65° C. before slicing. Sections (75 and 90 nm) were picked up on formvar/Carbon coated Cu grids, stained for 15 seconds in 1:1 Super-saturated uranyl acetate (7.7%) in acetone followed by staining in 0.2% lead citrate for 3 to 4 minutes (all reagents from Electron Microscopy Sciences, PA).
To quantitate number of patent vessels, 10-15 non-overlapping fields (1200× magnification) were photographed from 2-3 slices taken from each animal. Vessels were identified and counted if lumen and endothelial lining was apparent; vessels were confirmed by scanning over these fields at higher magnification. Assessments of vessel count were performed by an observer blinded to treatment group. The number of vessels per field was then averaged for each group of animals (n=4 per group). Statistical differences between groups were analyzed using an unpaired t-test. Higher magnification images (5000-15000×) were taken to assess microvascular morphology.

[2] = test system: rats subjected to ischemic/reperfusion injury; test: Cerebral blood flow after repeated intraperitoneal administrations (Example 2); assay type: in vivo
Excerpt: (§1) Ischemia and reperfusion were induced in male Sprague-Dawley rats using an occluding intraluminal suture as described in Maier, et al., J. Neurosurg. 94(1):90-96 (2001). Briefly, an uncoated 30 mm long segment of 3-0 nylon monofilament suture with the tip rounded by a flame was inserted into the stump of the external carotid artery and advanced into the internal carotid artery 19-20 mm from the bifurcation to occlude the ostium of the middle cerebral artery (MCA). Following placement of the suture, the wound was closed and animals were placed back in cages for a period of two hours. Following this period, animals were reanestheized and the suture was withdrawn to allow reperfusion of the brain.
Immediately following reperfusion, the rats were placed in a stereotaxic frame, and a burr hole was drilled through the skull 1 mm posterior and 6 mm lateral to the bregma on the ipsilateral hemisphere corresponding to the ischemic territory. Cerebral blood flow (CBF) was measured via this burr hole using a laser Doppler probe controlled by a micromanipulator (Laserflo BPM403A laser-Doppler flowmeter, Vasamedic, St. Paul, Minn.). The display is digital only, collects eight data points per second, and was set to give a moving average of data every 0.1 sec. […] CBF readings began at 30 minutes from the onset of reperfusion. […]

[3] = test system: rats subjected to ischemic/reperfusion injury by middle cerebral artery (MCA) occlusion; test: Cerebral blood flow by laser Doppler flowmetry after single intraperitoneal bolus (Example 1); assay type: in vivo, Sprague-Dawley rats; details: bolus intraperitoneal delivery
Excerpt: Male Sprague-Dawley rats (280-320g; n=8) were used for cerebral ischemia and reperfusion, and subsequent monitoring of cerebral blood flow. Tat or δV1-1 peptides were synthesized and conjugated via a Cys S—S bond as described previously (Chen, et al., Proc. Natl. Acad. Sci. USA 25(20):11114-11119 (2001); Inagaki, et al., Circulation 11(108):2304-2307 (2003)). Rats were sacrificed by overdose of isoflurane immediately following procedure
as §1
Immediately following reperfusion, the rats were placed in a stereotaxic frame, and a burr hole was drilled through the skull 1 mm posterior and 6 mm lateral to the bregma on the ipsilateral hemisphere corresponding to the ischemic territory. Cerebral blood flow (CBF) was measured via this burr hole using a laser Doppler probe controlled by a micromanipulator (Laserflo BPM403A laser-Doppler flowmeter, Vasamedic, St. Paul, Minn.). The display is digital only, collects eight data points per second, and was set to give a moving average of data every 0.1 sec. (Perez-Pinzon, et al., J. Neurolog. Sci. 153 (1):25-31 (1997); Borlongan, et al., Brain Res. 1010(1-2):108-116 (2004)). CBF readings began at 30 minutes from the onset of reperfusion. Following a period of 20-30 minutes to establish baseline CBF, a δPKC inhibitor, the δV1-1 peptide (which was conjugated to Tat for delivery), was injected by intraperitoneal bolus, and blood flow was monitored for an additional 20-30 minutes.

[4] = rats subjected to ischemic/reperfusion injury (2 h MCA occlusion), within 30 minutes, FIG. 2
[5] = sham (non-stroked) rats, within 30 minutes of delivery, FIG. 1

SFNSYELGSL [δV1-1-TAT] was tested, and the “number of vessels per field (patent microvessels)” value [1] was 3.1±0.6 vessels/field, the “microvascular structure (higher magnification TEM)” value ([1]; ischemic animals, 0.2 mg/kg at reperfusion only, FIGS. 4F, 4I, 4L) was “significantly less damaged” and the “desensitization to the inhibitor” value ([2]; ischemic/reperfusion rats treated multiple times) was “did not become desensitized”. For the same sequence, the “cerebral blood flow (CBF)” value ([2]; ischemic/reperfusion rats, repeated intraperitoneal administrations, FIG. 3) was “further increased blood flow”, the “cerebral blood flow (CBF)” value [3, 4] was “increased cerebral blood flow” and the “cerebral blood flow (CBF)” value [3, 5] was “no change in blood flow”.
YGRKKRRQRRR [TAT, reference compound] was tested, and the “number of vessels per field (patent microvessels)” value [1] was 1.6±0.6 vessels/field, the “cerebral blood flow (CBF)” value [3, 4] was “no effect on CBF” and the “cerebral blood flow (CBF)” value [3, 5] was “no effect on CBF”.
